Data on 4 compounds can be found in patent publication US5843955A, “Compound LK6-A” (Kyowa Hakko Kogyo Co., Ltd., priority 1995, dated 1998).

The test system of one data set is T cells. In words: Growth inhibition against T cells in murine mixed lymphocyte reaction. The class given is cell-based. Particulars: Mus musculus, T-cell; 72 hours at 37° C., [^3 H]Thymidine incorporation (added 18 hours before end); read-out: 50% inhibitory concentration (IC50) against the growth of T cells in murine mixed lymphocyte reaction. The procedure: Growth inhibition against T cells in murine mixed lymphocyte reaction
Lymph node was aseptically excised from a B10.BR mouse (Japan SLC Inc.) with a solution comprising Hanks' […] salt solution (HBSS, Gibco) and 2.5% fetal calf serum (FCS, Gibco) (hereinafter referred to as HBSS-FCS) and resuspended into a culture medium (RPMI 1640, Nissui) containing 10% fetal calf serum (FCS, Gibco), 1% 200 mM L-Gultamine (Gibco), 1% Penicillin-Streptoymycin liquid (Gibco), 5% NCTC-109 (Gibco), 1% 1M HEPES (Gibco), 7.5% NaHCO3 (SIGMA) and 0.1% 50 mM 2-mercaptoethanol (Nakarai) (hereinafter referred to as RPMI 1640-FCS) to prepared a single cell suspension to give a density of 3×10^6 cells/ml. […]
[^3 H]Thymidine was added to the wells in an amount of 1.0 μCi/well 18 hours before the end of each incubation. […] A toluene scintillator was added to the cells, and the amount of [^3 H]Thymidine radioactivity incorporated into the cells was determined using a liquid scintillation counter. The T cell growth inhibition rate was calculated according to the following equation. […]
C: Amount of [^3 H]Thymidine radioactivity incorporated into the mixed cell suspension
T: Amount of [^3 H]Thymidine radioactivity incorporated into the LK6-A-treated mixed cell suspension
A: Amount of [^3 H]Thymidine radioactivity incorporated into only the B10.BR murine lymph node cells. […]
(In general: Uptake of a labelled nucleoside into DNA is a usual measure of proliferation.)

A further data set is described as follows: Solubility. The class given is physicochemical.
Another data set relates to L1210 cell. Particulars: Tetrahedron Letters, 31, 3271 (1990); cited from earlier work.
Another data set has as its system reverse transcriptase. Particulars: U.S. Pat. No. 4,959,370; J. Am. Chem. Soc., 112, 1 (1990); cited from earlier work.
Data set [1] relates to Nippostrongylus brasiliensis. Particulars: U.S. Pat. No. 4,959,370; J. Am. Chem. Soc., 112, 1 (1990); cited from earlier work.

Take `CO/C=C/C(=O)c1cc2c3c(c(N)cc(NC(C)=O)c3n1)N=C2` [LK6-A]: the IC50 in the data set with T cells came out at 9 nM. For the same compound, the Solubility result in “Solubility” (chloroform) is “sparingly soluble”; in “Solubility” (dimethylsulfoxide (DMSO)), “Soluble”; in the data set “Solubility” (hexane) it was “insoluble”; in the data set “Solubility” (methanol) it was “sparingly soluble”; in the data set “Solubility” (water) it was “sparingly soluble”.

Take `CNc1c2ncc3c4ccccc4[nH]c(c4nccc(=O)c14)c23` [plakinidine C]: in the data set with L1210 cell, the “cytotoxic activity against the L1210 cell” value was “cytotoxic activity”.

plakinidine A: in the data set on reverse transcriptase, the “reverse transcriptase inhibitory activity” value was “reverse transcriptase inhibitory activity”. Also, the “cytotoxic activity against the L1210 cell” value in the data set on L1210 cell is reported as “cytotoxic activity”. The “activity against a parasite Nippostrongylus brasiliensis” value in data set [1] is “activity”.

For plakinidine B, the “cytotoxic activity against the L1210 cell” value in the data set with L1210 cell was “cytotoxic activity”. In data set [1], the “activity against a parasite Nippostrongylus brasiliensis” value was “activity”.
